# Experimental data as given in patent publication US20210324357A1, “DEGRADATION DOMAIN MODIFICATIONS FOR SPATIO-TEMPORAL CONTROL OF RNA-GUIDED NUCLEASES” (THE BRIGHAM AND WOMEN'S HOSPITAL, INC., priority 2018, published 2021).
# Entries after “also recorded” stand apart in the source; their conditions may differ.
# Columns and labels:
# [1] = tested on: FKBP-Cas9 in U2OS.eGFP-PEST cells; assay: Analysis of Cas9 nuclease activity via genomic eGFP-PEST disruption in U2OS cells; format: cell-based, human; details: for NtLp 2xFKBP Cas9 activity (% eGFP disruption): increasing amount of degrader 1.4-1000 nM
# Description: In some embodiments, a quantitative human cell-based reporter assay that enables rapid quantitation of targeted nuclease activities is used to characterize off-target cleavage of Cas9-based RNA guided endonucleases. In this assay, the activities of nucleases targeted to a single integrated EGFP reporter gene can be quantified by assessing loss of fluorescence signal in human U2OS.EGFP cells caused by inactivating frameshift insertion/deletion (indel) mutations introduced by error prone non-homologous end-joining (NHEJ) repair of nuclease-induced double-stranded breaks (DSBs).
# In one protocol, U2OS.EGFP cells harboring a single integrated copy of an EGFP-PEST fusion gene are cultured (see e.g., Reyon et al., Nat Biotech 30, 460-465 (2012), which is herein incorporated by reference in its entirety). For transfections, 200,000 cells are nucleofected with gRNA expression plasmid and pJDS246 together with 30 ng of a Td-tomato-encoding plasmid using the SE Cell Line 4D-Nucleofector™ X Kit (Lonza) according to the manufacturer's protocol. Cells are analyzed 2 days post-transfection using a BD LSRII flow cytometer. Transfections for optimizing gRNA/Cas9 plasmid concentration are performed in triplicate and all other transfections are performed in duplicate.
# In plasmid delivery, approximately 200,000 U20S.eGFP-PEST cells were nucleofected with 300 ng of Cas9 and sgRNA expression plasmids (NtLp 2xFKBP, NtCt 2xFKBP, LpCt 2xFKBP, and 3xFKBP) using the SE Cell Line 4D-Nucleofector X Kit (Lonza) according to the manufacturer's protocol. Approximately 12,000 transfected cells per well were plated in a 96-well plate (Corning 3904) and incubated with dTAG 47 at 1000 nM, 333 nM, 111 nM, 37 nM, 12 nM, 4 nM, 1.4 nM at 37° C. for 48 hrs. In RNP delivery, 15 pmol pre-formed RNP (Cas9 and NtLp 2xFKBP) were nucleofected and followed the protocol described above. Cells were fixed using 4% paraformaldehyde and HCS NuclearMask Blue Stain. The plate was imaged with IXM ImageXpress Automated High Content Microscope at 4× magnification under two excitation channels (blue and green). Images were analyzed in the MetaXpress software.
# [2] = tested on: NtLp 2xFKBP Cas9 RNP in S2 cells; assay: Analysis of Cas9 nuclease activity in Drosophila S2 cell via genomic eGFP disruption; format: cell-based; details: RNP delivery, dTAG-47 1000 nM, 10 nM, 0 nM, 48 hrs
# Protocol: Approximately 200,000 S2 cells were nucleofected with 15 pmol pre-formed Cas9 RNP (NtLp 2xFKBP) using SE Cell Line 4S-Nucleofector X Kit (Lonza). Approximately 70,000 transfected S2 cells per well were plated in 96-well plate and incubated with 1000 nM and 10 nM dTAG 47. After incubation at room temperature for 48 hrs, cells were stained with HCS Nuclear Mask Blue stain, and imaged with IXM ImageXpress Automated Hifh Content Microscope at 4× magnification under two excitation channels (blue and green).
# [3] = tested on: FKBP-SpCas9 constructs (NtLp 2xFKBP, NtCt 2xFKBP, LpCt 2xFKBP, 3xFKBP) in HEK293FT cells; assay: Western blot analysis of FKBP-SpCas9 degradation; format: cell-based; details: increasing amount of dTAG-47 (0.04-3.3 uM), 24h, tubulin loading control
# Protocol: HEK293 or NIH3T3 were transfected with pX330 FKBP-Cas9 plasmid using Lipofectamine 2000 or Lipofectamine 3000 to the manufacturer's protocol accordingly. 24 hours after transfection, cells transiently expressing the different constructs (NtLp 2xFKBP, NtCt 2xFKBP, LpCt 2xFKBP, and 3xFKBP) were incubated in either the absence or the presence of dTAG 47 (3.3 uM, 1.1 uM, 0.37 uM, 0.12 uM, 0.042 uM) for 24h before harvesting. Cells were washed with PBS and proceed to lysis in RIPA buffer. The cell suspensions were centrifuged at 16,000 g for 30 min at 4° C. 20 ug of supernatant were electrophoresed on 4-12% Bis-Tris gel with SDS-Tris running buffer. The protein bands were transferred to nitrocellulose membrane at 100V for 1 h and probed with mouse anti-Cas9 antibody (Abcam) and rabbit anti-tubulin as loading control (Abcam). After blocking and incubation with primary antibodies, membranes were incubated with 680-nm or 800-nm fluorophore labeled secondary antibodies. Protein bands were detected using LI-COR Bioisciences Odyssey Imager and analyzed by Image Studeio Lite (LI-COR Biosciences).
Compound,"NtLp 2xFKBP Cas9 activity (% eGFP disruption) ([1]; U2OS cells, RNP delivery)","potency in reducing Cas9 activity ([1]; plasmid delivery and RNP delivery (FIGS. 3A-3B, 4A-4B))",eGFP disruption by NtLp 2xFKBP Cas9 RNP [2],Cas9 protein detected (degradation of FKBP-SpCas9) [3],"potency in reducing NtLp 2xFKBP Cas9 activity ([1]; U2OS cells, RNP delivery, comparison of FIG. 4A and 4B)","potency in inducing degradation (eGFP disruption assay of 4 FKBP-Cas9) ([1]; plasmid delivery, comparison of FIG. 3A and 3B)"
CC[C@H](C(=O)N1CCCC[C@H]1C(=O)O[C@H](CCc1ccc(OC)c(OC)c1)c1ccccc1OCC(=O)NCCCCCCCCNc1ccc2c(c1)C(=O)N(C1CCC(=O)NC1=O)C2=O)c1cc(OC)c(OC)c(OC)c1 (stereo partly shown) [dTAG-47],reduced significantly,more potent in reducing Cas9 activity,less eGFP disrupted,less Cas9 protein was detected; also recorded: less Cas protein was detected,,
CC[C@H](C(=O)N1CCCC[C@H]1C(=O)O[C@H](CCc1ccc(OC)c(OC)c1)c1ccccc1OCC(=O)NCCCCCCOc1cccc2c1C(=O)N(C1CCC(=O)NC1=O)C2=O)c1cc(OC)c(OC)c(OC)c1 (stereo partly shown) [dTAG-13],reduced but not as significant,,,,less potent than dTAG-47,less potent than dTAG-47
